Patent publication US20130052654A1, “Amyloid Precursor Protein E2 Domain and Uses Thereof” (Leibniz Institute For Age Research - Fritz Lipmann …, priority 2011, published 2013)
Values joined by “and” are separate entries in the source; they are usually repeats but may differ in a detail not shown here. Identical values can stand only once. Like-named read-outs stand apart in the source and are kept apart here. Marks after values point to notes of the source that are not given here.

Assays:
APP-E2 [1] = target: T1, APP-E2 (Homo sapiens, UniProt P05067); assay: CD-spectroscopy melting curves of APP-E2 at 222 nm; assay type: binding; details: 7.5 μM APP-E2, 10 μM metal; inflection point of CD melting curve at 222 nm
T1 construct: APP-E2 comprising Ser295-Asp500 (numbering according to APP695); hexa-histidine tag (C, cleaved yes); made in house; host or cells: E. coli BL21(DE3)pRIL
Method: CD-data were collected on a J-710 spectropolarimeter (Jasco Corporation) in the same buffers used for ITC binding studies adding 7.5 μM APP-E2 and 10 μM zinc or copper. CD-signals were measured at 222 nm upon heating (1° C./min) of the samples from 20° C. to 90° C. The blank signals produced by the buffers at 20° C. were subtracted as constant values from the melting curves. Indicated melting points correspond to the inflection points of the melting curves determined from the peak of the 1st order derivative calculated using spectra analysis software (Jasco Corporation).

APP-E2 [2] = target: T1, APP-E2; assay: Metal retention assay (ultrafiltration); assay type: binding; details: 50 μM APP-E2, 75 μM metal, concentrated 8-fold
Method: 50 μM APP-E2 (without His-tag) and 75 μM CuCl2 in 50 mM Tris/HCl pH 7.3, 150 mM NaCl or 75 μM ZnCl2 in 20 mM Hepes/NaOH pH 7.3, 150 mM NaCl was concentrated 8-fold at 20° C. using Vivaspin 500 ultrafiltration devices with 5.000 MWCO PES membranes (Sartorius stedim biotech). Samples without protein, or containing 50 μM lysozyme instead of APP-E2, served as controls. Metal ions in the retenate were quantified by a spectrophotometric method (Sabel et al., 2010). Each experiment was performed in triplicate and the average ratio of the change in concentration relative to the starting concentration (c-c0/c0) was plotted.

APP-E2 [3] = target: T1, APP-E2; assay: Determination of total Zn2+ binding sites on APP-E2
Method: The protein was saturated with 10 mM ZnCl2 in 20 mM Hepes/NaOH pH 7.3, 150 mM NaCl resulting in quantitative precipitated of the protein. The precipitate was washed with buffer until a stable equilibrium ratio of zinc saturated protein in the liquid phase and the solid phase was reached. The concentration of Zn (Sabel et al., 2010) and protein (Bradford, 1976) were determined after each wash step in the liquid phase (supernatant) after […] centrifugation at 16,000 g. The ratio between [Zn^2+] and [APP-E2] at equilibrium conditions corresponds to the total number of zinc binding sites per protein molecule, which was determined to be 4.3+/−0.2 (FIG. 10B). Subtraction of one strong intra-molecular binding site yields the number of intermolecular binding sites of as 3.3.

APP-E2 [4] = target: T1, APP-E2; assay: Limited proteolysis with Trypsin; assay type: biochemical; details: 40 μM metal, 20 μM protein, 0.5 μg/ml Trypsin
Method: Limited proteolysis was performed in 20 mM HEPES, 150 mM NaCl at pH 7.4 containing 0.5 μg/ml Trypsin (Calbiochem) and 20 μM purified protein (α-casein as control). Copper or zinc were supplemented at 40 μM to the Samples. Reactions were stopped after 30 and […] by addition of 10 mM PMSF and analyzed by SDS-PAGE. Protease cleavage sites were characterized by Edman sequencing (Procise 494A, Applied Biosystems, Foster City, Calif., USA). Limited proteolysis results shown were reproduced in three independent experiments.

APP-E2 [5] = target: T1, APP-E2; assay: Isothermal titration calorimetry (ITC) of metal binding to APP-E2; details: for n1: ITC stoichiometry, first site; for dH1: Cu in Tris, Zn in Hepes, pH 7.3
Method: ITC was performed at the same conditions as the metal retention assays in a NANO ITC calorimeter (TA Instruments, USA) adding 0.4 mM CuCl2 in 6 μl injections or 0.4 mM ZnCl2 in 11 μl injections to the cell containing 40 μM protein. Blank enthalphies for titrations of metals in buffer were subtracted from peak integrals. Binding constants were calculated with the NanoAnalyze program (TA Instruments, USA) using a model for a single set of identical binding sites in the case of copper binding. In the case of zinc binding the enthalpic data were fitted to a binding model representing two sets of independent binding sites, accounting for 1 strong binding site and 3.3 weak binding sites (4.3 total Zn^2+ sites) per protein molecule (for further details see supplementary data). All titrations were performed in triplicate. The initially determined KDapp of the APP-E2/Cu complex had to be corrected for competition with the copper ligand Tris (Hatcher et al., 2008) and its pH-dependent protonation. The exact coordination chemistry of Cu^2+ by Tris is, unfortunately, not precisely known, e.g. tertiary Cu(Tris)2 and quinary Cu(Tris)4 complexes are described in the literature. However, all models agree about the formation of a binary Tris-Cu^2+ complex, described by a formation constant pK1(Tris) of ˜4. The corrected KD was calculated according to KD=KDapp(1+ cTris×10^pK^1(Tris)/(1+10^−pH×Ka))^−1 using pK1(Tris)=3.82 (Canepari et al., 1999) and pKa(Tris)=8.1.
The effect of excessive zinc to protein ratios was studied in ITC experiments in three repeating titrations into the same cell solution. Titration was performed in 20 mM Hepes/NaOH pH 7.3, 150 mM NaCl at 20° C., adding a 0.8 mM ZnCl2 solution in 3×22 injections to 40 μM APP-E2, resulting in a final Zn^2+/protein ratio of 22. The molar ratios for titration experiment 2 and 3 were calculated neglecting intermixture of cell volume and slight volume changes occurring after refill of the syringe. Blank enthalphies for titrations of metals in buffer were subtracted from peak integrals.

full length APP = target: T2, full length APP (Homo sapiens, UniProt P05067); details: cited from earlier work
T2 construct: previously reported for full length APP (0.75 μM) (Bush et al., 1993)
T2 sequence (P05067 18-770, species assumed): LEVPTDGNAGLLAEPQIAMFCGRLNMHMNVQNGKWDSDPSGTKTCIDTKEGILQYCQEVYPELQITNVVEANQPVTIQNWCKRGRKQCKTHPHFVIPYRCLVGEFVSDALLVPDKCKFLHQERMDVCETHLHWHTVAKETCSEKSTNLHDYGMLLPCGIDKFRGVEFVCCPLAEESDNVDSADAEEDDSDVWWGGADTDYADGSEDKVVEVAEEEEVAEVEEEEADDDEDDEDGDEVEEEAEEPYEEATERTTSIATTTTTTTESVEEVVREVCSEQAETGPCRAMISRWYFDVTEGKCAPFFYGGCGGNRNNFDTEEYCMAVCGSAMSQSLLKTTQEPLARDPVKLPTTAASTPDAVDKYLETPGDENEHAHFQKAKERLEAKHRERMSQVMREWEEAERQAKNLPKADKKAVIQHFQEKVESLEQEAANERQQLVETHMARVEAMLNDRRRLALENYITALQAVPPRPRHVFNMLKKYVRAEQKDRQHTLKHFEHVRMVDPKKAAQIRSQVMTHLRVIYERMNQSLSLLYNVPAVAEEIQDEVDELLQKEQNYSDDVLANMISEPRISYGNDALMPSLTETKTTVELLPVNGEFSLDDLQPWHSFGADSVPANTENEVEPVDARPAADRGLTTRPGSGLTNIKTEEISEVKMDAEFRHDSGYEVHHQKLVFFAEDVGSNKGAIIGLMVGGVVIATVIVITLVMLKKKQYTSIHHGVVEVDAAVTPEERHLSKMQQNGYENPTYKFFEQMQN

APP-E2 [6] = target: T1, APP-E2; assay: GPC and GPC coupled SLS, oligomerization state with heparin; assay type: binding; details: 50 μM APP-E2, 100 μM heparin; for MWSLS of APP-E2: GPC coupled SLS, absolute molecular weight; for MWrh of APP-E2: GPC, apparent molecular weight
Method: Analytical GPC and SLS studies were performed in 150 mM NaCl, 10 mM Sodium phosphate buffer, pH 7.3, on a calibrated (MWGF70, Sigma) Superdex200 10/300 GL column (GE Healthcare) using 50 μM APP-E2. Where applicable, a ˜3.6 kDa heparin preparation (Reviparin-Sodium, Abott) was added at 100 μM to the protein and the buffer. SLS data were recorded using VE 3580 RI and 270 Dual detectors (Viscotek, USA) and analyzed using software provided by the manufacturer. Given data represent average values±standard deviation of three independent experiments.

[7] = target: the molecule itself; assay: gel permeation chromatography and GPC-coupled static light scattering, without and with low molecular weight heparin (self-association test)
Method: All intermolecular contacts identified in the crystals analysed with the PISA server (Krissinel and Henrick, 2007) result from crystal packing, evidenced by the calculated complexation significance scores (CSS) that are equal to 0. Consequently, the protomer contacts are predominantly stabilized by the intermolecular coordinated cadmium ions. […] To investigate this observation further, the apparent molecular weight was determined based on the hydrodynamic radius (MWᵣₕ) using gel permeation chromatography (GPC) as well as the absolute molecular weight (MWSLS) employing GPC coupled static light scattering (SLS; Supplementary Figure S2). […] The influence of heparin on the oligomerization state of the E2 domain, which was described to promote dimer formation (Lee et al., 2011), was tested.

## [Zn+2] [Zn^2+, zinc]
APP-E2 [1]
  melting temperature of APP-E2: 64.2±0.3 °C
APP-E2 [2]
  retention of metal ions upon APP-E2 concentration: accumulated in the retenate
APP-E2 [3]; ratio [Zn2+]/[APP-E2] at equilibrium after wash steps
  total number of zinc binding sites per protein molecule: 4.3+/−0.2 and 4.3
APP-E2 [3]; total minus one strong intramolecular site
  number of weak (intermolecular) zinc binding sites: 3.3
APP-E2 [4]
  effect on Trypsin cleavage of APP-E2: Trypsin cleavage at Arg385 completely disappeared
APP-E2 [5]; ITC competition
  exothermic zinc binding reaction with copper pre-saturated APP-E2: completely missing
APP-E2 [5]
  n1: 0.7 ± 0.2
APP-E2 [5]; ITC, 20 mM Hepes/NaOH pH 7.3, 150 mM NaCl, two sets of independent sites, strong site, listed as zinc, read-out: KD1, Zn-APP-E2
  Kd: ≤ 3.9 µM
APP-E2 [5]; ITC, 20 mM Hepes/NaOH pH 7.3, 150 mM NaCl, two sets of independent sites, strong site, read-out: KD1, Zn-APP-E2
  Kd: 3.9 ± 1.5 µM
APP-E2 [5]; ITC, Hepes pH 7.3, weak sites, not statistically significant in curve fit, listed as zinc, read-out: KD2, Zn-APP-E2
  Kd: ≤ 2600 µM
APP-E2 [5]; ITC, Hepes pH 7.3, weak sites, not statistically significant in curve fit, read-out: KD2, Zn-APP-E2
  Kd: 2600 µM
APP-E2 [5]; ITC
  dH1: -3.97 ± 0.14 kcal/mol
APP-E2 [5]; weak sites, determined independently and fixed during curve fit
  n2: 3.3^b
Full length APP; Bush et al., 1993, read-out: dissociation constant for full length APP (zinc)
  Kd: 0.75 µM

## [Cu+2] [Cu^2+, copper]
APP-E2 [1]
  melting temperature of APP-E2: 61.0±0.0 °C
APP-E2 [2]
  retention of metal ions upon APP-E2 concentration: accumulated in the retenate
APP-E2 [4]
  effect on Trypsin cleavage of APP-E2: stabilizes especially fragment 1
APP-E2 [5]
  n1: 0.70 ± 0.03
APP-E2 [5]; ITC
  dH1: -4.76 ± 0.22 kcal/mol
APP-E2 [5]; intersection point with the ordinate, 15-75 mM Tris, read-out: KD from linear extrapolation of apparent KD as function of Tris concentration
  Kd: ~0.02 µM
APP-E2 [5]; minimal model of a Cu2+-Tris 1:1 complex, upper (weakest) limit, listed as copper, read-out: KD corrected for Tris competition
  Kd: ≤ 0.013 µM
APP-E2 [5]; minimal model of a Cu2+-Tris 1:1 complex, upper (weakest) limit, read-out: KD corrected for Tris competition
  Kd: < 0.013 µM
Full length APP; Hesse et al., 1994, read-out: dissociation constant for full length APP (copper)
  Kd: 0.01 µM

## Reviparin-Sodium [HP]
APP-E2 [6]
  MWSLS of APP-E2: 31.6 ± 0.2 kDa
  MWrh of APP-E2: 39.2 ± 0.4 kDa
APP-E2 [6]; listed as Clivarin
  MWSLS of APP-E2: 31.6 kDa
  MWrh of APP-E2: 39.2 kDa

B1: APP-E2 comprising Ser295-Asp500 (numbering according to APP695) (other)
chain: STPDAVDKYLETPGDENEHAHFQKAKERLEAKHRERMSQVMREWEEAERQAKNLPKADKKAVIQHFQEKVESLEQEAANERQQLVETHMARVEAMLNDRRRLALENYITALQAVPPRPRHVFNMLKKYVRAEQKDRQHTLKHFEHVRMVDPKKAAQIRSQVMTHLRVIYERMNQSLSLLYNVPAVAEEIQDEVDELLQKEQNYSDD
notes: The C-terminal His tag was cleaved for the biochemical studies; also called E2 domain; human APP-E2 domain; not shown: a few non-native C-terminal residues left after the hexa-histidine tag was cleaved off (factor Xa or V8 protease); their
[7]
  binding result: no binding (tested: 50 µM APP-E2)
